Patent publication US10555987B2, “GHRH agonists for the treatment of ischemic disorders” (UNIVERSITY OF MIAMI, priority 2012, dated 2020)
Non-standard residues stand in square brackets, D forms with d. Residues, ends and D or L forms follow the SMILES beside them. *: point of attachment. Desaminotyrosyl = O=C(CCc1ccc(O)cc1)*; hArg = N=C(N)NCCCC[C@H](N)C(=O)O; Agmatine = N=C(N)NCCCCN*; Nle = CCCC[C@H](N)C(=O)O; Orn = NCCC[C@H](N)C(=O)O; dAbu = CC[C@@H](N)C(=O)O; Abu = CC[C@H](N)C(=O)O; GABA = NCCCC(=O)O

Columns and labels:
[1] = biological target: T1, GHRH receptor (Homo sapiens, UniProt Q02643); assay: GHRH receptor binding, competition with 125I-labeled [His1,Nle27]hGHRH(1-32)NH2, human pituitary membrane homogenates (Table 6); set-up: Normal human pituitaries were purchased from the National Hormone and Peptide Program; tissue National Hormone and Peptide Program (A.F. Parlow, Harbor-UCLA Medical Center, Torrance, Calif.); host or cells: normal human pituitary, membrane fraction; conditions: for Relative affinity (Binding potency) vs GHRH: GHRH(1-29) = 1, Table 6; for Relative affinity (Binding potency) vs JI-38: JI-38 = 1, Table 6
T1 sequence (Q02643 23-423): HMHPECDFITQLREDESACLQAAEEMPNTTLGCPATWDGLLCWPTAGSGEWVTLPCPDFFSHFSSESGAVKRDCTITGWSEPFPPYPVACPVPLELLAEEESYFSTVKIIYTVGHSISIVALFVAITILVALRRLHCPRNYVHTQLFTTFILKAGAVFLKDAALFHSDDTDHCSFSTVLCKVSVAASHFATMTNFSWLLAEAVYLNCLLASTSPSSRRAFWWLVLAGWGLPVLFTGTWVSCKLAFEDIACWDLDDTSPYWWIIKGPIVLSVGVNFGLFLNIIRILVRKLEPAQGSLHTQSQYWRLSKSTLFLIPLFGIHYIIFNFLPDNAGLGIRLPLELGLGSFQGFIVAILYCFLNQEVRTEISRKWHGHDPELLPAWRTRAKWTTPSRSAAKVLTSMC
Description: (§1) Normal human pituitaries were purchased from the National Hormone and Peptide Program (A.F. Parlow, Los Angeles, County Harbor-UCLA Medical Center, Torrance, Calif.).

[2] = test system: GH release; assay: In vivo endocrine activity, GH release after intravenous administration (Table 8); conditions: rat, i.v. injection
[3] = test system: GH release; assay: In vivo endocrine activity, GH release after subcutaneous administration (Table 9); conditions: rat, subcutaneous (s.c.) injection
Protocol: Subcutaneous Administration. Adult male rats were used and anesthetized with pentobarbital (6 mg/100 g, b.w.), by i.p. injection. […] Blood samples were taken from the jugular vein 5, 15 and/or 30 minutes after the injection. The blood samples were centrifuged, plasma was removed and the GH level was measured byELISA. The results are summarized in terms of potency in Table 9.

[4] = test system: GH release; assay: GH releasing potency in vivo, subcutaneous administration (Example 14, Table 12); set-up: species or system rat; conditions: s.c.
How it was run: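 Potency is expressed relative to GHRH(1-29)NH2 and JI-38 (each = 1), via equivalent GHRH(1-29)NH2 dose read from a standard curve. Peptides in 5% mannitol given i.v. or s.c. to anaesthetised male Sprague-Dawley rats (200-250 g); serum GH measured by ELISA at selected times.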

[5] = test system: GH release; assay: GH releasing potency in vivo, intravenous administration (Example 14, Table 13); set-up: species or system rat; conditions: i.v.
Protocol: Male Sprague-Dawley rats, weighing 200-250 g, were purchased from Charles River Laboratory (Wilmington, Mass.) and used for experiments. All animal procedures were approved by the Veterans Affairs Animal Care and Use Committee and were conducted in accordance with additional institutional guidelines as well. Briefly, groups of 5-6 animals were used in each experiment. The rats were anesthetized with 50 mg/kg of sodium pentobarbital (Nembutal, Lundbeck Inc., Deerfield, Ill.). Twenty min after inducing anesthesia, GHRH(1-29)NH2, JI-38, or new analogs were injected into the animals intravenously (i.v.) or subcutaneously (s.c.). The peptides were dissolved in 0.01 M acetic acid to get 1 μg/μl stock solution, and then diluted with 5% mannitol. Control rats received 5% mannitol only. Blood samples were collected from the jugular vein at selected times and were used for serum preparation. Concentrations of GH in rat sera were determined by ELISA. The relative potencies of tested peptides were calculated using GHRH(1-29)NH2 and JI-38 for comparison, whose potency was defined as 1. The equivalent dosage of GHRH(1-29)NH2 to reach the same level of serum growth hormone release after injection of the specific tested peptide was determined from a GHRH(1-29)NH2 standard curve using Origin 6.0 software. […] Serum GH was determined using the rat Growth Hormone ELISA kit (ALPCO Diagnostics, Mill Valley, Calif.) according to the manufacturer's instruction. Absorbance at 405 nm was measured by a Victor 3 Multi-label Counter (Perkin-Elmer, Waltham, Md.).

[6] = biological target: T1, GHRH receptor; assay: Receptor binding in vitro, 125I-labeled [His1,Nle27]-hGHRH(1-32)NH2, membrane receptors of human anterior pituitary cells (Table 14)
Description: Normal human pituitary was purchased from the National Hormone and Peptide Program (UCLA Medical Center, Torrance, Calif.).

[7] = biological target: T1, GHRH receptor; assay: GHRH receptor binding, competition with 125I-labeled JV-1-42, human pituitary membrane homogenates (Table 7); set-up: Normal human pituitaries were purchased from the National Hormone and Peptide Program; tissue National Hormone and Peptide Program (A.F. Parlow, Harbor-UCLA Medical Center, Torrance, Calif.); host or cells: normal human pituitary, membrane fraction; conditions: JI-38 = 1, Table 7
Description: as §1

CCCC[C@H](NC(=O)[C@@H](NC(=O)[C@H](CC(=O)O)NC(=O)[C@H](CCC(N)=O)NC(=O)[C@H](CC(C)C)NC(=O)[C@H](CC(C)C)NC(=O)[C@H](CCCN)NC(=O)[C@H](CCCNC(=N)N)NC(=O)[C@H](C)NC(=O)[C@H](CO)NC(=O)[C@H](CC(C)C)NC(=O)[C@H](CCC(N)=O)NC(=O)[C@H](CC)NC(=O)[C@H](CC(C)C)NC(=O)[C@@H](NC(=O)[C@H](CCCN)NC(=O)[C@H](CCCNC(=N)N)NC(=O)[C@H](Cc1ccc(O)cc1)NC(=O)[C@H](CO)NC(=O)[C@@H](NC(=O)[C@@H](NC(=O)[C@H](Cc1ccccc1)NC(=O)[C@@H](NC(=O)[C@H](C)NC(=O)[C@H](CC(=O)O)NC(=O)[C@@H](C)NC(=O)CCc1ccc(O)cc1)[C@@H](C)CC)[C@@H](C)O)[C@@H](C)O)C(C)C)[C@@H](C)CC)C(=O)N[C@@H](CC(=O)O)C(=O)N[C@@H](CCCNC(=N)N)C(=O)N[C@@H](CCCCNC(=N)N)C(N)=O [Peptide P-23254, [Dat^1, D-Ala^2, Thr^8, Orn^12, Abu^15, Orn^21, Nle^27, Asp^28, Har^30]hGHRH(1-30)NH2] (Desaminotyrosyl-[dA]DAIFTTSYR[Orn]VL[Abu]QLSAR[Orn]LLQDI[Nle]DR[hArg]-NH2)
Relative affinity (Binding potency) vs GHRH [1]: 84.5 | Relative affinity (Binding potency) vs JI-38 [1]: 27.8

CCCC[C@H](NC(=O)[C@@H](NC(=O)[C@H](CC(=O)O)NC(=O)[C@H](CCC(N)=O)NC(=O)[C@H](CC(C)C)NC(=O)[C@H](CC(C)C)NC(=O)[C@H](CCCN)NC(=O)[C@H](CCCNC(=N)N)NC(=O)[C@H](C)NC(=O)[C@H](CO)NC(=O)[C@H](CC(C)C)NC(=O)[C@H](CCC(N)=O)NC(=O)[C@H](CC)NC(=O)[C@H](CC(C)C)NC(=O)[C@@H](NC(=O)[C@H](CCCN)NC(=O)[C@H](CCCNC(=N)N)NC(=O)[C@H](Cc1ccc(O)cc1)NC(=O)[C@H](CO)NC(=O)[C@@H](NC(=O)[C@@H](NC(=O)[C@H](Cc1ccccc1)NC(=O)[C@@H](NC(=O)[C@H](C)NC(=O)[C@H](CC(=O)O)NC(=O)[C@H](C)NC(=O)CCc1ccc(O)cc1)[C@@H](C)CC)[C@@H](C)O)[C@@H](C)O)C(C)C)[C@@H](C)CC)C(=O)N[C@@H](CC(=O)O)C(=O)NCCCCNC(=N)N [JI-36, reference compound] (Desaminotyrosyl-ADAIFTTSYR[Orn]VL[Abu]QLSAR[Orn]LLQDI[Nle]D-Agmatine; N-terminus and C-terminus assumed)
Relative affinity (Binding potency) vs GHRH [1]: 3.25

CCCC[C@H](NC(=O)[C@@H](NC(=O)[C@H](CC(=O)O)NC(=O)[C@H](CCC(N)=O)NC(=O)[C@H](CC(C)C)NC(=O)[C@H](CC(C)C)NC(=O)[C@H](CCCN)NC(=O)[C@H](CCCNC(=N)N)NC(=O)[C@H](C)NC(=O)[C@H](CO)NC(=O)[C@H](CC(C)C)NC(=O)[C@H](CCC(N)=O)NC(=O)[C@H](CC)NC(=O)[C@H](CC(C)C)NC(=O)[C@@H](NC(=O)[C@H](CCCN)NC(=O)[C@H](CCCNC(=N)N)NC(=O)[C@H](Cc1ccc(O)cc1)NC(=O)[C@H](CO)NC(=O)[C@H](CC(N)=O)NC(=O)[C@@H](NC(=O)[C@H](Cc1ccccc1)NC(=O)[C@@H](NC(=O)[C@H](C)NC(=O)[C@H](CC(=O)O)NC(=O)[C@@H](C)NC(=O)CCc1ccc(O)cc1)[C@@H](C)CC)[C@@H](C)O)C(C)C)[C@@H](C)CC)C(=O)N[C@@H](CC(=O)O)C(=O)N[C@@H](CCCNC(=N)N)C(=O)N[C@@H](CCCCNC(=N)N)C(N)=O [Peptide P-23252, [Dat^1-D-Ala^2, Orn^12, Abu^15, Orn^21, Nle^27, Asp^28, Har^30]hGHRH(1-30)NH^2] (Desaminotyrosyl-[dA]DAIFTNSYR[Orn]VL[Abu]QLSAR[Orn]LLQDI[Nle]DR[hArg]-NH2)
Relative affinity (Binding potency) vs GHRH [1]: 42.3 | Relative affinity (Binding potency) vs JI-38 [1]: 13.9

CCCC[C@H](NC(=O)[C@@H](NC(=O)[C@H](CC(=O)O)NC(=O)[C@H](CCC(N)=O)NC(=O)[C@H](CC(C)C)NC(=O)[C@H](CC(C)C)NC(=O)[C@H](CCCN)NC(=O)[C@H](CCCNC(=N)N)NC(=O)[C@H](C)NC(=O)[C@H](CO)NC(=O)[C@H](CC(C)C)NC(=O)[C@H](CCC(N)=O)NC(=O)[C@H](CC)NC(=O)[C@H](CC(C)C)NC(=O)[C@@H](NC(=O)[C@H](CCCN)NC(=O)[C@H](CCCNC(=N)N)NC(=O)[C@H](Cc1ccc(O)cc1)NC(=O)[C@H](CO)NC(=O)[C@H](CC(N)=O)NC(=O)[C@@H](NC(=O)[C@H](Cc1ccccc1)NC(=O)[C@@H](NC(=O)[C@H](C)NC(=O)[C@H](CC(=O)O)NC(=O)[C@@H](CC)NC(=O)CCc1ccc(O)cc1)[C@@H](C)CC)[C@@H](C)O)C(C)C)[C@@H](C)CC)C(=O)N[C@@H](CO)C(=O)N[C@@H](CCCNC(=N)N)C(=O)NCCCC(N)=O [Peptide P-25504, [Dat^1, D-Abu^2, Orn^12, Abu^15, Orn^21, Nle^27, Gab^30]hGHRH(1-30)NH2] (Desaminotyrosyl-[dAbu]DAIFTNSYR[Orn]VL[Abu]QLSAR[Orn]LLQDI[Nle]SR[GABA]-NH2)
GH releasing potency in vivo relative to JI-38 (=1) ([2]; 5 min after): 1.66 | GH releasing potency in vivo relative to JI-38 (=1) ([2]; 15 min after): 1.65 | GH releasing potency in vivo relative to JI-38 (=1) ([2]; 30 min after): 1.37 | GH releasing potency relative to JI-38 (=1) ([3]; 15 min after): 0.78 | GH releasing potency relative to JI-38 (=1) ([3]; 30 min after): 0.98 | Serum GH level at selected time after injection (ng/ml), 0 min ([4]; male rats, dose 3 μg/kg, 0 min, mean ± SEM): 25.4 ± 4.1 ng/mL | Serum GH level at selected time after injection (ng/ml), 15 min ([4]; male rats, dose 3 μg/kg, 15 min, mean ± SEM): 200.0 ± 10.7 ng/mL | Serum GH level at selected time after injection (ng/ml), 30 min ([4]; male rats, dose 3 μg/kg, 30 min, mean ± SEM): 130.0 ± 19.1 ng/mL | Relative potency compared to GHRH(1-29), 15 min ([4]; 15 min): 52.6 | Relative potency compared to JI-38, 15 min ([4]; 15 min): 0.83 | Relative potency compared to GHRH(1-29), 30 min ([4]; 30 min): 113.8 | Relative potency compared to JI-38, 30 min ([4]; 30 min): 1.02 | Relative potency, 5 min ([5]; 5 min, JI-38 = 1): 1.55 | Relative potency, 15 min ([5]; 15 min, JI-38 = 1): 1.50 | Serum GH level at selected time after injection (ng/ml), 0 min ([5]; dose 1 μg/kg, 0 min, mean ± SEM): 25.7 ± 6.3 ng/mL | Serum GH level at selected time after injection (ng/ml), 5 min ([5]; dose 1 μg/kg, 5 min, mean ± SEM): 832 ± 214 ng/mL | Serum GH level at selected time after injection (ng/ml), 15 min ([5]; dose 1 μg/kg, 15 min, mean ± SEM): 297 ± 45.6 ng/mL | Relative affinity (Binding potency) compared to JI-38 ([6]; JI-38 = 1): 0.96 | Relative affinity (Binding potency) compared to hGHRH(1-29) ([6]; hGHRH(1-29)NH2 = 1): 2.68 | Relative affinity (Binding potency) vs JI-38 [7]: 3.02
